Source: the METLIN SMRT retention time set (Domingo-Almenara et al. 2019)

Assay: gradient 5% acetonitrile 3 min, to 50% in 2 min, to 85% in 15 min, held 3 min, 100 µL/min
Settings: column: Zorbax Extend-C18 2.1 x 50 mm; eluents: water / acetonitrile, 0.1% formic acid
In short: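 In both positive and negative ionization mode, a quadrupole time-of-flight mass spectrometer coupled to HPLC analyzed pure standards run in mixtures of ~100 molecules. The Zorbax Extend-C18 column (2.1 × 50 mm, 1.8 μm) was operated at 100 μL/min with water and acetonitrile, each containing 0.1% formic acid. The dead volume was 40 μL and the dwell volume 900 μL. Retention time came from adduct peaks that were computationally picked and individually inspected by hand.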

| RP-LC retention time [s] | SMILES |
| --- | --- |
| 758 | COc1cccc(CNC(=O)C2CCN(c3ccc(SCc4ccccc4)nn3)CC2)c1 |
| 695 | COc1ccc(S(=O)(=O)NCc2cccnc2-c2cccc(C)c2)cc1 |
| 776 | C=CCNC(=O)c1cnn(-c2cc(-c3nc(C(C)C)no3)ccn2)c1C |
| 643 | CCOc1cccc2c(C)nc(NC3=NCN(CCOC)CN3)nc12 |
| 679 | Cn1cc(CCNC(=O)Nc2ccc(F)cc2)c2cccnc21 |
| 592 | COc1ccccc1CNC(=O)CSc1ccc(-c2cccnc2)nn1 |
| 882 | CC(C)c1cc(-c2ccc(F)c3ccccc23)nc(N)n1 |
| 914 | COc1ccc(-c2cn3c(CC(=O)Nc4ccc(Br)c(C)c4)csc3n2)cc1 |
| 594 | O=C(CCc1csc2nc(C3CC3)cn12)Nc1nc2ccccc2s1 |
| 696 | CCCC(NC(=O)c1cccc(OC)c1)C(=O)Nc1nc2ccccc2[nH]1 (configuration not stated) |
| 784 | COc1ccc(-c2c(C)noc2NC(C)=O)cc1S(=O)(=O)NCc1ccc(C)cc1 |
| 569 | CCNC(=O)C1Cn2cccc2C(=O)N1C (configuration not stated) |
| 647 | Cc1cc(C)n2nc(SCC(=O)NCc3cccs3)nc2n1 |
| 939 | N#CC1=CN(c2cccc(Br)c2)c2ccccc2S1(=O)=O |
| 743 | COc1ccc(-c2cn3cccnc3n2)cc1NC(=O)c1ccc(Cl)cc1 |
| 799 | Cn1nc(-c2ccccc2)c2ccccc2c1=O |
| 742 | CCn1cnc2ccc(-c3noc(-c4ccccc4OC)n3)cc21 |
| 641 | Cn1ccc2cc(S(=O)(=O)N3CCC(C(=O)NCc4ccccn4)CC3)ccc21 |
| 989 | Cc1ccc(S(=O)(=O)N2CCC(C(=O)NCc3csc(-c4ccccc4)n3)CC2)cc1C |
| 554 | CS(=O)(=O)N1CCC(C(=O)Nc2nnc(SCc3ccccn3)s2)CC1 |
| 709 | Cn1cnc(S(=O)(=O)N2CCC(C(=O)Nc3ccc(F)c(F)c3)CC2)c1 |
| 684 | CN(C)CCNc1oc(-c2ccc(COc3ccccc3)o2)nc1C#N |
| 566 | Cn1c(=O)n(C)c2cc(S(=O)(=O)NCC(=O)O)ccc21 |

| RP-LC retention time [s] | SMILES |
| --- | --- |
| 765 | CCCN1C(=O)Cc2ccccc2C1C(=O)NCc1ccc2c(c1)OCO2 (configuration not stated) |
| 660 | COc1ccc(S(=O)(=O)NCC2CCN(Cc3cc(C)oc3C)CC2)cc1Cl |
| 893 | COc1ccc(-c2noc(-c3nc(-c4cccnc4)no3)n2)cc1OC |
| 604 | CN1CCC[C@@H]1Cc1c[nH]c2ccc(CCS(=O)(=O)c3ccccc3)cc12 |
| 643 | CNS(=O)(=O)c1cc(C(=O)Nc2cc(C)on2)oc1C |
| 780 | CCn1cc(C)c(C(=O)O)c1CC(=O)N1CCc2ccccc2C1 |
| 668 | O=C(NCc1csc(C2CCN(C(=O)c3cc(F)ccc3F)CC2)n1)C1CC1 |
| 700 | CCc1nn2c(CNC(=O)c3cccnc3)c(-c3ccccc3)nc2s1 |
| 857 | O=C(NCc1cc(F)cc(F)c1)c1cn2cc(Cl)ccc2n1 |
| 656 | Cn1c(N2CCN(C(=O)c3ccc(F)c(F)c3)CC2)cc(=O)n(C)c1=O |
| 601 | CCCC(=O)N1C[C@H]2C[C@H](C1)[C@H]1CCCC(=O)N1C2 |
| 695 | Cc1cc(=O)n(CC(=O)Nc2ccc(F)cc2C)c(N2CCCCC2)n1 |
| 717 | Cc1ccccc1NC(=O)C1CC(=O)N(c2ccc3c(c2)CCN3C(=O)C2CC2)C1 (configuration not stated) |
| 785 | Cc1cc2nn(CC(=O)Nc3ccc(F)cc3)c(=O)n2c(-c2ccccc2)n1 |
| 945 | Cc1sc2ccn(Cc3ccc(F)cc3)c(=O)c2c1C(=O)NCc1cccs1 |
| 588 | COc1ccc(-n2c(N)cc(=O)nc2SCC(=O)Nc2cc(C)on2)cc1 |
| 751 | CCOc1nccnc1N1CCC(N(C)C(=O)c2ccc(C#N)cc2)C1 (configuration not stated) |
| 738 | CCN1C(=O)C(CC(=O)NCCC(C)C)Sc2ncccc21 (configuration not stated) |
| 871 | O=C(NCc1cccc(F)c1)c1ccc(-c2ccsc2)nc1 |
| 705 | COc1ccccc1CNC(=O)Cn1nc2cc(-c3ccccc3)nc(C)n2c1=O |
| 760 | COc1ccc(CCN2C(=O)C(NC(C)=O)(C(F)(F)F)C3=C2CC(C)(C)CC3=O)cc1OC (configuration not stated) |
| 814 | CCOC(=O)Cn1cccc(S(=O)(=O)N2CCC(C)CC2)c1=O |
| 1080 | COc1ccc(NC(=O)c2noc3c2CCCCC3)c(OC)c1 |

| RP-LC retention time [s] | SMILES |
| --- | --- |
| 782 | Cc1ccc(CNC(=O)C2CCN(C(=O)c3ncn4c3COC(c3ccccc3)C4)CC2)cc1 (configuration not stated) |
| 1380 | CCCCN1C(=O)C(C)(C(=O)N2CCN(c3cccc(C)c3C)CC2)Oc2cccnc21 (configuration not stated) |
| 743 | CCS(=O)(=O)N1CC(=O)N(c2ccc(F)cc2)C(C)(C(=O)NCc2ccc(F)cc2)C1 (configuration not stated) |
| 967 | Cn1cc(SCC(=O)Nc2ccccc2C(F)(F)F)c2ccccc21 |
| 597 | CCC(=O)Nc1ccc(CCc2nc3ccc(C(=O)NCc4ccco4)cc3[nH]2)cc1 |
| 777 | CN1CC(=O)N(CC(=O)Nc2ccc(OC(F)(F)F)cc2)c2ccccc2C1=O |
| 907 | Cc1ccc(-n2c(C)c(C)c3c(=O)n(CC(=O)N(C)Cc4ccco4)cnc32)cc1 |
| 633 | Cc1noc(C2CN(C(=O)NC3CCCC3)CC23CCOCC3)n1 (configuration not stated) |
| 670 | COc1ccc(NC(=O)CN2CCC(c3nc(-c4cccs4)no3)CC2)cc1 |
| 886 | O=C(c1ccccc1)N1CCc2cc(-c3ccno3)ccc21 |
| 774 | CCOc1ccc(CNC(=O)c2ccc3c(c2)N(C)C(=O)C2CCCCN32)cc1OC (configuration not stated) |
| 871 | CCOC(=O)C(=O)Cc1nc2ccccc2s1 |
| 1030 | COC(=O)c1c(NC(=O)c2cc(C)no2)sc(C)c1C |
| 798 | N#Cc1ccc(C(=O)Nc2cnn(-c3ncc(N4CCCC4)cn3)c2)cc1 |
| 655 | Cc1oc(-c2[nH]ncc2C(=O)N2CCCC2)cc1S(=O)(=O)NCCCOC(C)C |
| 586 | CCc1nnc(NC(=O)CSc2nccn2Cc2ccc3c(c2)OCO3)s1 |
| 658 | Cc1cnc(-n2nnc(C(=O)N3CCOCC3)c2C)s1 |
| 1170 | COC(=O)c1ccccc1NC(=O)c1c(O)c2cccc3c2n(c1=O)CC3 |
| 678 | Cc1cccc(N2CC(C(=O)NC(C)C)CC2=O)c1 (configuration not stated) |
| 1020 | Cc1cc2nn(CC(=O)Nc3ccc(F)c(F)c3)c(=O)n2c(Nc2ccc(F)cc2)n1 |
| 618 | CCn1c(=O)c(NCCc2ccc(OC)c(OC)c2)nc2ccncc21 |
| 902 | O=C(NCC1CCCO1)c1csc(N2CCN(c3ccc(F)cc3)CC2)n1 (configuration not stated) |
| 724 | CCC(CO)NC(=O)C(=O)NCCC1=CCCCC1 (configuration not stated) |

| RP-LC retention time [s] | SMILES |
| --- | --- |
| 768 | CCCN(CC1CCOC1)C(=O)Nc1ccccc1C (configuration not stated) |
| 1320 | CCc1nn2c(ncc3c(=O)n(-c4nccs4)ccc32)c1-c1ccc(F)cc1 |
| 919 | Cc1ccccc1-c1nnc(CSc2nnc(NC(=O)c3ccc(Br)o3)s2)o1 |
| 937 | Cc1ccc(-n2c(=O)c3c(cc(C)n3C)n(CC(=O)Nc3cccc(Cl)c3)c2=O)cc1 |
| 640 | CCc1cc(=O)n(CC(=O)Nc2ccc(C)c(C)c2)c(N)n1 |
| 1080 | COc1ccc(Cl)cc1S(=O)(=O)N1CCCC(C(=O)Nc2ccc(C)c(C)c2)C1 (configuration not stated) |
| 738 | O=C(NC1CC1)C1COC2(CCN(C(=O)c3cccc(Cl)c3)CC2)N1C(=O)c1cccc(F)c1 (configuration not stated) |
| 845 | Brc1cccc(-c2nnc(Cc3nc(-c4cccnc4)no3)o2)c1 |
| 666 | CCC1CCCCN1C(=O)c1cnc2nc(C)ccc2c1Nc1ccc2c(c1)OCCO2 (configuration not stated) |
| 808 | COc1cccc(NC(=O)C2(C)Oc3cccnc3N(C)C2=O)c1 (configuration not stated) |
| 622 | CCCC(=O)N1CC(c2nc(-c3cccnc3)no2)C2(CCOCC2)C1 (configuration not stated) |
| 862 | CCOC(=O)c1c(S(=O)(=O)N2CCC(C(=O)NCc3ccccc3Cl)CC2)c(C)n(C)c1C |
| 676 | CN(CCCNC(=O)C1CCCN(C(=O)c2cccc(Cl)c2)C1)c1ccccc1 (configuration not stated) |
| 1000 | COc1ccc(C2C(C)C(=O)C(C)C(c3ccc(OC)cc3)N2N=O)cc1 (configuration not stated) |
| 670 | Cc1cc(=O)n(CC(=O)Nc2ccccc2)c(N2CCCCC2)n1 |
| 995 | O=c1ccn(-c2cccc(F)c2)nc1-c1nc(-c2cccc(Br)c2)no1 |
| 997 | CCc1nc(OCC(=O)Nc2ccc(Cl)c(C(F)(F)F)c2)c2ccccc2n1 |
| 693 | O=C1NC(C(=O)Nc2ccc(F)c(F)c2)Cn2cccc21 (configuration not stated) |
| 706 | COc1cc(OC)c(NC(=O)NCC(c2cccnc2)c2c[nH]c3ccccc23)cc1Cl (configuration not stated) |
| 947 | O=c1n(Cc2ccccc2F)nc2c(S(=O)(=O)N3CCc4ccccc4C3)cccn12 |
| 821 | CC1CCCN(c2ccn3c(=O)n(CC(=O)NCc4ccc(Cl)cc4)nc3n2)C1 (configuration not stated) |
| 782 | Cc1ccc(-c2nc(CN3CCCC3=O)no2)cc1 |

| SMILES | RP-LC retention time [s] |
| --- | --- |
| COc1ccc2c(c1)C1(CCN(S(=O)(=O)c3ccc(F)c(C)c3)C1)C(=O)N2 (configuration not stated) | 874 |
